In DBAASP:
Converted amounts (≈) assume the structure as drawn.

Columns and labels:
Assay in all cases: ≥ marks a high value that may be exact or a test limit, other limits are often not marked, values filed in µg/mL are converted to µM
[1] = system: Acinetobacter baumannii Ab1408
[2] = system: Enterococcus faecalis ATCC 29212
Escherichia coli Ec513 = system: Escherichia coli Ec513
Escherichia coli J2210 = system: Escherichia coli J2210
Escherichia coli Neumann = system: Escherichia coli Neumann
Escherichia coli UB1005 = system: Escherichia coli UB1005
Escherichia coli = system: Escherichia coli
[3] = system: Klebsiella pneumoniae ATCC 12657
[4] = system: Klebsiella pneumoniae CMCC 46117
[5] = system: Klebsiella pneumoniae DSM 681
Klebsiella pneumoniae = system: Klebsiella pneumoniae
[6] = system: Micrococcus luteus ATCC 10240
[7] = system: Proteus vulgaris ICB 9095
[8] = system: Pseudomonas aeruginosa DSM 3227
[9] = system: Shigella flexneri ATCC 12022
[10] = system: Stenotrophomonas sp. ICB 7569
[11] = system: Stenotrophomonas sp. ICB 7789

MIC [1]: ≥ 53.5 µM
MIC [2]: > 512 µM
MIC (Escherichia coli Ec513): ≥ 53.5 µM
MIC (Escherichia coli J2210): 0.33 µM (≈ 0.79 µg/mL)
MIC (Escherichia coli Neumann): 0.837 µM (≈ 2 µg/mL)
MIC (Escherichia coli UB1005): 0.544 µM (≈ 1.3 µg/mL)
MIC (Escherichia coli): 0.296 µM (≈ 0.707 µg/mL)
MIC [3]: 0.209 µM (≈ 0.5 µg/mL)
MIC [4]: 2 µM (≈ 4.78 µg/mL)
MIC [5]: 1.67 µM (≈ 4 µg/mL)
MIC (Klebsiella pneumoniae): 3.35 µM (≈ 8 µg/mL)
MIC [6]: 3.35 µM (≈ 8 µg/mL)
MIC [7]: 1.67 µM (≈ 4 µg/mL)
MIC [8]: 1.67 µM (≈ 4 µg/mL)
MIC [9]: 16 µM (≈ 38.2 µg/mL)
MIC [10]: 3.35 µM (≈ 8 µg/mL)
MIC [11]: 13.4 µM (≈ 32 µg/mL)
SMILES: CC[C@H](C)[C@H](NC(=O)[C@H](CCCN=C(N)N)NC(=O)[C@H](CCCN=C(N)N)NC(=O)[C@@H]1CCCN1C(=O)[C@@H]1CCCN1C(=O)[C@H](CCCN=C(N)N)NC(=O)[C@@H]1CCCN1C(=O)[C@H](CCCN=C(N)N)NC(=O)[C@@H]1CCCN1C(=O)[C@H](CC(C)C)NC(=O)[C@H](Cc1ccc(O)cc1)NC(=O)[C@@H]1CCCN1C(=O)[C@@H]1CCCN1C(=O)[C@H](CCCCN)NC(=O)[C@H](CC(=O)O)NC(=O)[C@@H](N)C(C)C)C(=O)N[C@@H](Cc1ccc(O)cc1)C(=O)N[C@@H](CC(N)=O)C(=O)N[C@@H](CCCN=C(N)N)C(N)=O [VDKPPYLPRPRPPRRIYNR]
